Target: Thymidine kinase (Herpes simplex virus 1)
Experiment: Binding affinity was determined against Herpes simplex virus (HSV) -1 thymidine kinase in vero cell monolayer culture

SMILES: Nc1nc2c(ncn2CC=C(CO)CO)c(=O)[nH]1
- Ki: 25 µM

— BindingDB's records for doi:10.1021/jm00388a036 (1987)
